In ChEMBL document CHEMBL1157012, “Neural computational prediction of oral drug absorption based on CODES 2D descriptors” (Eur J Med Chem, 2010):

Assay: Human intestinal absorption in po dosed human
Settings: in vivo

## CCCc1nc2c(C)cc(-c3nc4ccccc4n3C)cc2n1Cc1ccc(-c2ccccc2C(=O)O)cc1
  Fa: 90%

## N[C@H](Cc1ccccc1)C(=O)N1CCC[C@H]1C(=O)O
  Fa: 100%

## CNS(=O)(=O)Cc1ccc2[nH]cc(CCN(C)C)c2c1
  Fa: 57%

## CC1=C(CC(=O)O)c2cc(F)ccc2/C1=C\c1ccc([S+](C)[O-])cc1 (stereo unspecified)
  Fa: 90%

## COc1ccccc1N1CCN(CCCNc2cc(=O)n(C)c(=O)n2C)CC1
  Fa: 78%

## Cc1cccc(C)c1NC(=O)NCCCNC(C)C
  Fa: 71%

## CCOC(=O)[C@H](CCc1ccccc1)N[C@@H](C)C(=O)N1CCC[C@H]1C(=O)O
  Fa: 66%

## COc1ccc(CCN(C)CCCC(C#N)(c2ccc(OC)c(OC)c2)C(C)C)cc1OC (stereo unspecified)
  Fa: 97%

## CCCC(=O)Nc1ccc(OCC(O)CNC(C)C)c(C(C)=O)c1 (stereo unspecified) [ACEBUTOLOL]
  Fa: 80%

## CC(=O)Nc1ccc(O)cc1 [ACETAMINOPHEN]
  Fa: 80%

## Cc1ccc(/C(=C\CN2CCCC2)c2cccc(/C=C/C(=O)O)n2)cc1 [ACRIVASTINE]
  Fa: 88%

## Nc1nc2c(ncn2COCCO)c(=O)[nH]1 [ACYCLOVIR]
  Fa: 23%

## Nc1ncnc2c1ncn2CCOCP(=O)(O)O [ADEFOVIR]
  Fa: 16%

## Cc1nnc2n1-c1ccc(Cl)cc1C(c1ccccc1)=NC2 [ALPRAZOLAM]
  Fa: 90%

## N=C(N)NC(=O)c1nc(Cl)c(N)nc1N [AMILORIDE]
  Fa: 50%

## O=C1O[C@H]([C@@H](O)CO)C(O)=C1O [ASCORBIC ACID]
  Fa: 35%

## CC(=O)Oc1ccccc1C(=O)O [ASPIRIN]
  Fa: 82%

## NS(=O)(=O)c1cc(-c2nnn[nH]2)c(NCc2cccs2)cc1Cl [AZOSEMIDE]
  Fa: 10%

## C[C@H]1[C@H](NC(=O)/C(=N\OC(C)(C)C(=O)O)c2csc(N)n2)C(=O)N1S(=O)(=O)O [AZTREONAM]
  Fa: 1%

## CC(C)NCC(O)COc1ccc(CCOCC2CC2)cc1 (stereo unspecified) [BETAXOLOL]
  Fa: 90%

## O=C1CN=C(c2ccccn2)c2cc(Br)ccc2N1 [BROMAZEPAM]
  Fa: 84%

## Cn1c(=O)c2c(ncn2C)n(C)c1=O [CAFFEINE]
  Fa: 100%

## CN(C)C(=O)OC1N=C(c2ccccc2)c2cc(Cl)ccc2N(C)C1=O (stereo unspecified) [CAMAZEPAM]
  Fa: 100%

## C[C@H](CS)C(=O)N1CCC[C@H]1C(=O)O [CAPTOPRIL]
  Fa: 84%

## CC1(C)S[C@@H]2[C@H](NC(=O)C(C(=O)Oc3ccccc3)c3ccccc3)C(=O)N2[C@H]1C(=O)O (stereo partly specified) [CARBENICILLIN PHENYL]
  Fa: 99%

## CC1=C(C(=O)O)N2C(=O)[C@@H](NC(=O)[C@H](N)c3ccc(O)cc3)[C@H]2SC1 [CEFADROXIL]
  Fa: 100%

## N[C@@H](C(=O)N[C@@H]1C(=O)N2C(C(=O)O)=C(CSc3c[nH]nn3)CS[C@H]12)c1ccc(O)cc1 [CEFATRIZINE]
  Fa: 75%

## CO/N=C(\C(=O)N[C@@H]1C(=O)N2C(C(=O)O)=CCS[C@H]12)c1csc(N)n1 [CEFTIZOXIME]
  Fa: 72%

## CO/N=C(\C(=O)N[C@@H]1C(=O)N2C(C(=O)OC(C)OC(C)=O)=C(COC(N)=O)CS[C@H]12)c1ccco1 (stereo partly specified) [CEFUROXIME AXETIL]
  Fa: 44%

## O=C(N[C@H](CO)[C@H](O)c1ccc([N+](=O)[O-])cc1)C(Cl)Cl [CHLORAMPHENICOL]
  Fa: 90%

## ClC(Cl)Cl [CHLOROFORM]
  Fa: 100%

## CN/C(=N/CCSCc1nc[nH]c1C)NC#N [CIMETIDINE]
  Fa: 64%

## COc1cc(N)c(Cl)cc1C(=O)NC1CCN(CCCOc2ccc(F)cc2)CC1OC (stereo unspecified) [CISAPRIDE]
  Fa: 100%

## CCOC(=O)C(C)(C)Oc1ccc(Cl)cc1 [CLOFIBRATE]
  Fa: 97%

## Clc1cccc(Cl)c1N=C1NCCN1 [CLONIDINE]
  Fa: 95%

## O=C([O-])c1cc(=O)c2c(OCC(O)COc3cccc4oc(C(=O)[O-])cc(=O)c34)cccc2o1.[Na+].[Na+] [CROMOLYN SODIUM]
  Fa: 4%

## N[C@@H]1CON=C1O [CYCLOSERINE]
  Fa: 73%

## CO[C@H]1C[C@H](O[C@H]2CC[C@]3(C=O)[C@H]4CC[C@]5(C)[C@@H](C6=CC(=O)OC6)CC[C@]5(O)[C@@H]4CC[C@]3(O)C2)O[C@H](C)[C@H]1O [CYMARIN]
  Fa: 47%

## CNCCCN1c2ccccc2CCc2ccccc21 [DESIPRAMINE]
  Fa: 100%

## C[C@H](N)Cc1ccccc1 [DEXTROAMPHETAMINE]
  Fa: 90%

## COc1ccc2c3c1O[C@H]1[C@@H](O)CC[C@H]4[C@@H](C2)N(C)CC[C@@]341 [DIHYDROCODEINE]
  Fa: 88%

## CN(CCCCCCN(C)C(=O)Oc1ccc[n+](C)c1)C(=O)Oc1ccc[n+](C)c1.[Br-].[Br-] [DISTIGMINE BROMIDE]
  Fa: 8%

## COc1cccc2c1C(=O)c1c(O)c3c(c(O)c1C2=O)C[C@@](O)(C(=O)CO)C[C@@H]3O[C@H]1C[C@H](N)[C@H](O)[C@H](C)O1 [DOXORUBICIN]
  Fa: 12%

## NCCCC(N)(C(=O)O)C(F)F (stereo unspecified) [EFLORNITHINE]
  Fa: 55%

## C[C@H](N[C@@H](CCc1ccccc1)C(=O)O)C(=O)N1CCC[C@H]1C(=O)O [ENALAPRILAT ANHYDROUS]
  Fa: 25%

## C#C[C@]1(O)CC[C@H]2[C@@H]3CCc4cc(O)ccc4[C@H]3CC[C@@]21C [ETHINYL ESTRADIOL]
  Fa: 100%

## COc1cc([C@@H]2c3cc4c(cc3[C@@H](O[C@@H]3O[C@@H]5CO[C@@H](C)O[C@H]5[C@H](O)[C@H]3O)[C@H]3COC(=O)[C@H]23)OCO4)cc(OC)c1O [ETOPOSIDE]
  Fa: 50%

## CC(=O)OCC(CCn1cnc2cnc(N)nc21)COC(C)=O [FAMCICLOVIR]
  Fa: 77%

## NC(N)=Nc1nc(CSCCC(N)=NS(N)(=O)=O)cs1 [FAMOTIDINE]
  Fa: 28%

## NC(=O)OCC(COC(N)=O)c1ccccc1 [FELBAMATE]
  Fa: 90%

## CCOC(=O)C1=C(C)NC(C)=C(C(=O)OC)C1c1cccc(Cl)c1Cl (stereo unspecified) [FELODIPINE]
  Fa: 88%

## O=C(NCC1CCCCN1)c1cc(OCC(F)(F)F)ccc1OCC(F)(F)F (stereo unspecified) [FLECAINIDE]
  Fa: 81%

## C[C@@H]1O[C@@H]1P(=O)(O)O [FOSFOMYCIN]
  Fa: 31%

## O=CN(O)CCCP(=O)(O)O [FOSMIDOMYCIN]
  Fa: 30%

## NCC1(CC(=O)O)CCCCC1 [GABAPENTIN]
  Fa: 59%

## COc1ccc(CCN(C)CCCC(C#N)(c2cc(OC)c(OC)c(OC)c2)C(C)C)cc1OC (stereo unspecified) [GALLOPAMIL]
  Fa: 100%

## Cc1ccc(S(=O)(=O)NC(=O)NN2CC3CCCC3C2)cc1 (stereo unspecified) [GLICLAZIDE]
  Fa: 65%

## COc1ccc(Cl)cc1C(=O)NCCc1ccc(S(=O)(=O)NC(=O)NC2CCCCC2)cc1 [GLYBURIDE]
  Fa: 100%

## NCC(=O)O [GLYCINE]
  Fa: 100%

## CN1C2CCCC1CC(NC(=O)c1nn(C)c3ccccc13)C2 (stereo unspecified) [GRANISETRON]
  Fa: 100%

## N=C(N)N/N=C/c1c(Cl)cccc1Cl [GUANABENZ]
  Fa: 80%

## N=C(N)NCC1COc2ccccc2O1 (stereo unspecified) [GUANOXAN]
  Fa: 50%

## NS(=O)(=O)c1cc2c(cc1Cl)NCNS2(=O)=O [HYDROCHLOROTHIAZIDE]
  Fa: 69%

## CN(C)CCCN1c2ccccc2CCc2ccccc21 [IMIPRAMINE]
  Fa: 100%

## Nc1cc(-c2ccncc2)c[nH]c1=O [INAMRINONE]
  Fa: 93%

## CNC(=O)c1c(I)c(NC(C)=O)c(I)c(C(=O)[O-])c1I.[Na+] [IOTHALAMATE SODIUM]
  Fa: 2%

## NNC(=O)c1ccncc1 [ISONIAZID]
  Fa: 80%

## Cc1cc(NC(=O)C2=C(O)c3ccccc3S(=O)(=O)N2C)no1 [ISOXICAM]
  Fa: 100%

## CC(C(=O)O)c1cccc(C(=O)c2ccccc2)c1 (stereo unspecified) [KETOPROFEN]
  Fa: 92%

## O=C(c1ccccc1)c1ccc2n1CCC2C(=O)O (stereo unspecified) [KETOROLAC]
  Fa: 90%

## CC(CCc1ccccc1)NCC(O)c1ccc(O)c(C(N)=O)c1 (stereo unspecified) [LABETALOL]
  Fa: 95%

## OC[C@H]1O[C@@H](O[C@@H]2[C@@H](CO)O[C@](O)(CO)[C@H]2O)[C@H](O)[C@@H](O)[C@H]1O [LACTULOSE]
  Fa: 1%

## Nc1ccn([C@@H]2CS[C@H](CO)O2)c(=O)n1 [LAMIVUDINE]
  Fa: 85%

## Nc1nnc(-c2cccc(Cl)c2Cl)c(N)n1 [LAMOTRIGINE]
  Fa: 98%

## Cc1c(OCC(F)(F)F)ccnc1C[S+]([O-])c1nc2ccccc2[nH]1 (stereo unspecified) [LANSOPRAZOLE]
  Fa: 85%

## N[C@@H](Cc1ccc(O)c(O)c1)C(=O)O [LEVODOPA]
  Fa: 86%

## C#C[C@]1(O)CC[C@H]2[C@@H]3CCC4=CC(=O)CC[C@@H]4[C@H]3CC[C@@]21CC [LEVONORGESTREL]
  Fa: 100%

## CCC[C@@H]1C[C@@H](C(=O)N[C@@H]([C@H]2O[C@H](SC)[C@H](O)[C@@H](O)[C@H]2O)[C@@H](C)O)N(C)C1 [LINCOMYCIN]
  Fa: 28%

## NCCCC[C@H](N[C@@H](CCc1ccccc1)C(=O)O)C(=O)N1CCC[C@H]1C(=O)O [LISINOPRIL ANHYDROUS]
  Fa: 28%

## N[C@@H](C(=O)N[C@@H]1C(=O)N2C(C(=O)O)=C(Cl)CC[C@H]12)c1ccccc1 [LORACARBEF ANHYDROUS]
  Fa: 100%

## CN1C(=O)C(O)N=C(c2ccccc2Cl)c2cc(Cl)ccc21 (stereo unspecified) [LORMETAZEPAM]
  Fa: 100%

## CN1C(C(=O)Nc2ccccn2)=C(O)c2sc(Cl)cc2S1(=O)=O [LORNOXICAM]
  Fa: 100%

## OC[C@@H](O)[C@@H](O)[C@H](O)[C@H](O)CO [MANNITOL]
  Fa: 16%

## Cc1cnc(NC(=O)C2=C(O)c3ccccc3S(=O)(=O)N2C)s1 [MELOXICAM]
  Fa: 90%

## O=S(=O)([O-])CCS.[Na+] [MESNA]
  Fa: 77%

## CC(C)NCC(O)c1cc(O)cc(O)c1 (stereo unspecified) [METAPROTERENOL]
  Fa: 44%

## CN(C)C(=N)N=C(N)N [METFORMIN]
  Fa: 53%

## CCC(=O)C(CC(C)N(C)C)(c1ccccc1)c1ccccc1 (stereo unspecified) [METHADONE]
  Fa: 80%

## CN(Cc1cnc2nc(N)nc(N)c2n1)c1ccc(C(=O)N[C@@H](CCC(=O)O)C(=O)O)cc1 [METHOTREXATE]
  Fa: 70%

## C[C@](N)(Cc1ccc(O)c(O)c1)C(=O)O [METHYLDOPA]
  Fa: 41%

## C[C@H]1C[C@@H]2[C@H]([C@@H](O)C[C@@]3(C)[C@H]2CC[C@]3(O)C(=O)CO)[C@@]2(C)C=CC(=O)C=C12 [METHYLPREDNISOLONE]
  Fa: 82%

## Cc1cccc(C)c1OCC(C)N (stereo unspecified) [MEXILETINE]
  Fa: 100%

## COCC(=O)O[C@]1(CCN(C)CCCc2nc3ccccc3[nH]2)CCc2cc(F)ccc2[C@@H]1C(C)C [MIBEFRADIL]
  Fa: 69%

## COP(=O)(OC)OC(c1ccc(Cl)cc1)P(=O)(OC)OC (stereo unspecified) [MIFOBATE]
  Fa: 81%

## Nc1cc(N2CCCCC2)nc(N)[n+]1[O-] [MINOXIDIL]
  Fa: 98%

## COc1nc(C)nc(Cl)c1N=C1NCCN1 [MOXONIDINE]
  Fa: 87%
